We go through five compounds from patent publication US11369590B2, “PSMA binding ligand-linker conjugates and methods for using” (Purdue Research Foundation, priority 2007, dated 2022).

One series deals with PSMA (Homo sapiens, UniProt Q04609). The settings on record: PSMA ligand of formula drawing 51, R^1 as drawn; cited from earlier work.
Series [1] concerns LNCaP cells. Particulars: 1 hour. On the procedure: Quantification of PSMA Molecules on LNCaP Cells. […] Cells were rinsed three times with 1.0 mL of RPMI. Cells were lysed with tris-buffer, transferred to individual gamma scintigraphy vials, and radioactivity was counted. The plot of cell bound radioactivity verses concentration of radiolabeled compound was used to calculate number of PSMA/LNCaP cell. The radioactivity of a 30 nM sample of SK28-99 mTc (20 uL) was counted. At 4° C. (to prevent endocytosis of PSMA), the number of moles in the 30 nM sample=30 nM×20 uL=(30×10-9 mol/L)×(20×10-6 L)=6×10-13 mol.

Series [2] deals with LNCaP tumors. Put plainly: In vivo imaging of tumors in mouse using PSMA-99mTc compounds. The settings on record: mice with LNCaP tumors, 4 hours after intraperitoneal injection. On the procedure: In Vivo Imaging of Tumors in Mouse Using PSMA-99 mTc. When tumors reached a volume of between 500-600 mm3, 99 mTc-labeled compounds (e.g. SK28-99 mTc, SK60-99 mTc, etc) prepared as described, were administered through intraperitoneal injection […]. Four hours later, animals were euthanized and blood was taken by cardio punch and transferred to individual gamma scintigraphy vials per each animal. The imaging experiments were carried out using either a Kodak or gamma scintigraphic camera imager (FIGS. 6A, 6B, 6C, 7A, 7B and 7C). [Note: PMPA was injected 30 minutes before injecting SK28 -99 mTc.
FIGS. 6A, 6B, and 6C show images of mice with human LNCaP tumors using SK28-99 mTc (radiolabeled 14 Atom spacer).

The test system of series [3] is LNCaP tumors. Put plainly: In vivo imaging of LNCaP tumors in mouse using DUPA-99mTc. As to the method:
(§1) In Vivo Imaging of Tumors in Mouse Using dupa-99 mTc. To further establish the specificity of our DUPA conjugates for prostate cancer cells, DUPA-99 mTc was injected intraperitoneally (i.p.) into athymic nude mice bearing LNCaP tumors on their shoulders. After 4 h to allow for clearance of unbound conjugate, the distribution of the retained DUPA-99 mTc was imaged by gamma scintigraphy. […] In vivo specificity of the PSMA-targeted imaging agent was further tested by prior administration of excess PMPA to block all PSMA sites before DUPA-99 mTc administration. […] To further document this specificity, the radiotracer was also administered to two PSMA negative mouse xenograft models [A549 (a human lung cancer cell line) and KB (a human nasopharyngeal cancer cell line)], and again whole body images were taken. […] These studies thus confirm that very little DUPA-99 mTc binding occurs to sites unrelated to PSMA in vivo.
(§2) Overlay of whole-body radioimages on white light images of mice bearing LNCaP tumors that were treated with DUPA-99 mTc in the absence 7D(a, c) or presence 7D(b, d) of 100-fold molar excess PMPA. Overlay of radioimages on white light images were also obtained of mice bearing an A549 tumor 7D(e) or a KB tumor 7D(f) that were similarly treated with DUPA-99 mTc. Except in images 7D(a) and 7D(b), kidneys were shielded with lead pads. […]

For a further series, the system named is A549 tumors. Particulars: mouse, in vivo. On the procedure: as §1, §2
The test system of the next series is KB tumors. Particulars: mouse, in vivo. On the procedure:
as §1, §2

Series [4] concerns LNCaP cells. Nature of the series: [3H]-Thymidine incorporation assay, toxicity to LNCaP cells in culture. In kind it is cell-based, human. Particulars: LNCaP cells pulsed 2 h, additional 66 h in fresh medium. On the procedure:
Evaluation of a PSMA-Targeted Therapeutic Agent in Vitro. Analysis of SK71 (FIG. 12A), SK77 (FIG. 12B), SK37 (FIG. 12C), and SK45 (FIG. 12D), toxicity to LNCaP cells in culture. LNCaP cells were pulsed for 2 h with increasing concentrations of SK71 or SK77 in the presence (▴) or absence (▪) of 100-fold molar excess PMPA. After 2× washes, cells were incubated an additional 66 h in fresh medium at 37° C. Cell viability was then analyzed using the [3H]-thymidine incorporation assay, as described herein. Data were obtained in a single experiment and error bars represent s.d. (n=3 wells per concentration).

Series [5] can be described thus: Single dose toxicity in live mice. Particulars: mouse, in vivo, single dosing. From the text:
Single dose toxicity in live mice. Administration of SK71 was in a single dose as indicated. […] (See FIG. 9A)

Series [6] can be described thus: Multiple dose toxicity in live mice. In kind it is in vivo, mouse. As to the method:
Multiple dose toxicity in live mice. SK71 was administered in 5 doses on alternate days (M, W, F, M, W). […] (See FIG. 9B)

For series [7], the system named is LNCaP tumors. Put plainly: Efficacy study compared to control group and competition group. In kind it is in vivo, mouse. As to the method:
Efficacy study compared to control group and competition group. Animals were treated with (a) the conjugate SK71 administered in 5 doses on alternate days (M, W, F, M, W) at […], and compared to (b) vehicle treated animals (FIG. 10B), and to (c) animals treated with the conjugate in conjunction with PMPA. […] The competition experiments (See FIG. 10C) indicate that the successful treatment of the implanted tumor is related to selective or specific targeting of PSMA mediated delivery.

SMILES strings stand for the structures. pIC50, pKi: −log10 of the molar value. Read-outs that look alike come from different tables or passages of the source. *1 amine or outer side, *2 acyl side, *3 side chain or, on linkers, in order; H or OH if unused. Where a SMILES comes first, the peptide text is derived from it. Side-chain parts run from the residue outwards. [ ]: non-standard residue; d: D form. γGlu = O=C(O)[C@H](CCC(=O)[*:2])N[*:1]; Dap = NC[C@H](N)C(=O)O; Aoc = NCCCCCCCC(=O)O; CO = O=C([*:1])[*:2]

Sequence of PSMA (Q04609 whole entry, species assumed): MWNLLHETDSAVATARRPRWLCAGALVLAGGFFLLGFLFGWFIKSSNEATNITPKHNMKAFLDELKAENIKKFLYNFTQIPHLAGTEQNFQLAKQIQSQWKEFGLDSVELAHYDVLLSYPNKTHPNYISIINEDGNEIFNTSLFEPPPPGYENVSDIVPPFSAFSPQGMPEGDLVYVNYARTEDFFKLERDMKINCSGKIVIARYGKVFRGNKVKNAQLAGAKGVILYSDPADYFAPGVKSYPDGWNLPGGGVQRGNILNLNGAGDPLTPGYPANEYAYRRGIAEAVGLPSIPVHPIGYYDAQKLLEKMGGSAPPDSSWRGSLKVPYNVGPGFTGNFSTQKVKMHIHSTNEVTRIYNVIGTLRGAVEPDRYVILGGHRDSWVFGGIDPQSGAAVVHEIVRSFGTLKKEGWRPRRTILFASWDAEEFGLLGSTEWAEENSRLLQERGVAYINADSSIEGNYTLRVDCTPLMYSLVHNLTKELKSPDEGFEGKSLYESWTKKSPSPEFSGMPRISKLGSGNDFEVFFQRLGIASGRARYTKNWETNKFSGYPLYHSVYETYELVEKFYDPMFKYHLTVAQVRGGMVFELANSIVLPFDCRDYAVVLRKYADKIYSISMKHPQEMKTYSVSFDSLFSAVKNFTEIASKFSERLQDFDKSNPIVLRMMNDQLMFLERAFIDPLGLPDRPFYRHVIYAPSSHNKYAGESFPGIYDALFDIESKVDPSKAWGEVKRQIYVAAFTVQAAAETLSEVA

With `O=C(O)CCC(NC(=O)NC(CCC(=O)O)C(=O)O)C(=O)O` (centres unmarked), the pKi (in general, the Ki on a negative log10 scale, so that one unit is a factor of ten) at PSMA was 8.10.

`O=C(O)CCC(NC(=O)NC(CCC(=O)O)c1nnn[nH]1)C(=O)O` (centres unmarked): the pKi at PSMA is 6.47.

As for `N[C@@H](CNC(=O)[C@H](Cc1ccccc1)NC(=O)[C@H](Cc1ccccc1)NC(=O)CCCCCCCNC(=O)CC[C@H](NC(=O)N[C@@H](CCC(=O)O)C(=O)O)C(=O)O)C(=O)N[C@@H](CC(=O)O)C(=O)N[C@@H](CS)C(=O)O` [SK28-^99mTc, metal not drawn] (H-[Dap]([Phe-Phe-Aoc-γGlu-CO-Glu])-Asp-Cys-OH), the “cell bound radioactivity at the saturation point” value with LNCaP cells [1] (4° C.) is 12 000 cpm; with LNCaP cells [1] (37° C.) it was 33,000 cpm. Moreover, the “distribution of radioactivity (imaging)” value with LNCaP tumors [2] was “distribution was limited to kidneys”. For the same compound, the “tumor uptake after PMPA block” value in the series on LNCaP tumors [3] (LNCaP tumors, prior administration of 100-fold molar excess PMPA) is recorded as “no DUPA-99 mTc uptake”. Further, in the series on LNCaP tumors [3] (nude mice bearing LNCaP tumors, 4 h after i.p. injection, without PMPA), the “distribution of retained radiotracer (gamma scintigraphy)” value is recorded as “accumulated mainly in the PSMA positive LNCaP tumor”. For the same compound, the radioactivity in tumor result with A549 tumors and with KB tumors was “no radioactivity was observed” in each case.

As for `CC[C@@]1(OC(=O)OCCSSC[C@H](NC(=O)[C@H](CC(=O)O)NC(=O)[C@@H](N)CNC(=O)[C@H](Cc2ccccc2)NC(=O)[C@H](Cc2ccccc2)NC(=O)CCCCCCCNC(=O)CC[C@H](NC(=O)N[C@@H](CCC(=O)O)C(=O)O)C(=O)O)C(=O)O)C(=O)OCc2c1cc1n(c2=O)Cc2cc3ccccc3nc2-1` [SK45], in the series with LNCaP cells [4], the pIC50 – broadly, the IC50 on a negative log10 scale, so that one unit is a factor of ten – is about 7.54.

For `CCCC(=O)OCN(C(=O)[C@@H](NC(=O)[C@H]1CCCCN1C)C(C)CC)[C@H](C[C@@H](OC(C)=O)c1nc(C(=O)N[C@@H](Cc2ccc(O)cc2)C[C@H](C)C(=O)NNC(=O)OCCSSC[C@H](NC(=O)[C@H](Cc2ccccc2)NC(=O)[C@H](CC(=O)O)NC(=O)CC[C@H](NC(=O)CC[C@H](NC(=O)N[C@@H](CCC(=O)O)C(=O)O)C(=O)O)C(=O)O)C(=O)O)cs1)C(C)C` (some centres unmarked) [SK71], in the series on LNCaP cells [4], the pIC50 is about 8.70. Moreover, the MTD in series [5] is about 4.5 µmol/kg; in series [6] (mouse, in vivo, multiple dosing, 5 doses on alternate days, mice) it was 2 µmol/kg. Moreover, the visible tumors result in series [6] (LNCaP tumors, 2 and 4 μmol/kg groups, after 18 days of treatment) is listed as “no mice in the two treated groups had visible tumors”. In the series on LNCaP tumors [7] (1 μmol/kg, 5 doses on alternate days, starting tumor size approximately 250 mm3), the “tumor size during treatment” value is reported as “successive decrease in tumor size”. Further, the “tumor volume after dosing” value in the series on LNCaP tumors [7] (1 μmol/kg, at the cessation of dosing) is “tumor volumes rebounded”. The “tumor response at higher dose” value in the series on LNCaP tumors [7] (at least 2 μmol/kg, during the testing period) is “complete disappearance of the tumor”.
